Source: patent US20220264878A1, “HERBICIDAL COMPOSITION CONTAINING R-TYPE PYRIDYLOXY CARBOXYLIC ACID DERIVATIVE AND USE THEREOF” (Qingdao Kingagroot Chemical Compound Co., Ltd., priority 2019, published 2022)

How the values were obtained:
Format in all cases: in vivo
Conyza Canadensis = assay: Post-emergence foliage spray on Conyza Canadensis with a height of 10 cm, fresh weight inhibition (Tables 207-216; 24 days); settings: 24 days after treatment
Protocol: (§1) The above weeds were cultivated by a pot culture method. […] Full and uniform weed seeds were selected, soaked in warm water at 25° C. for 6 hours, and germinated in a 28° C. biochemical incubator (darkness). The weed seeds that had just germinatedwere evenly placed on the surface of the soil and then covered with 0.5-1 cm soil according to the sizes of seeds.
(§2) The technical materials were all dissolved in acetone, and diluted with an aqueous solution containing 0.1% emulsifier Tween-80. The dilution is performed as required.
(§3) A ratio of the active ingredient A to the active ingredient B and amounts thereof in each group depends on the characteristics and toxicity of the two agents, as well as the main application purpose of a corresponding formulation. Based on the pre-tests in this study, the dosage of the active ingredient A and B applied alone and in combination were shown in the tables. Water containing the solvent and emulsifier same with the above groups but free of the agents was used as a blank control.
In the stage of weeds with 6˜8 leaves, the weeds were thinned out to maintain 3 weeds per pot and 30 weeds for each treatment, then continued to be cultured to Conyza Canadensis with a height of 10 cm, and treated.
(§4) The well-cultured weeds were evenly placed on a platform with an area of 0.5 m^2, and a solution of agents was sprayed on the stems and leaves thereof by the 3WP-2000-type walking spray tower at a dosage of 450 kg/ha and at a spray pressure of 0.3 MPa. After all the solution was sprayed, the valve was closed. After 30 seconds, the door of the spray tower was opened, and the nutritional bowl was taken out. Then the valve was opened, and the spray tube was cleaned by spraying 50 ml of water.
(§5) A pot-culture method was employed. For the cultivation of weeds, please refer to the Section 1.1), and “Pesticide guidelines for laboratory bioactivity tests—herbicides”. As to a method for applying agents, please refer to the section 2.3.2), that is, a foliage treatment was employed. After the treatment, the weeds were routinely cultured in a greenhouse.
(§6) A method for investigating absolute number was employed, wherein whole seedlings of survival weeds were cut off with a blade along the soil surface, and the fresh weight of the weeds was weighed with an analytical balance. For dead weeds, the fresh weight thereof was zero.
Wherein, in the formula, X represented the fresh weight inhibition rate of the active ingredient A in a dosage of P, and Y represented the fresh weight inhibition rate of the active ingredient B in a dosage of Q.

Alopecurus japonicus = assay: Post-emergence foliage spray, pot culture, fresh weight inhibition (Tables 1-48, 51-98, 101-148; 24 days)
From the text: (§7) Table 1-48, 51-98, 101-148: Echinochloa crusgalli var. zelayensis, Eclipta prostrate, Galium aparine L., Alopecurus aequalis, Alopecurus japonicus, Lindernia procumbens, Veronica persica^1, Malachium aquaticum, Beckmannia syzigachne, Stellaria media were collected in Huai'an of Jiangsu Province; Commelina communis, Sonchus arvensis, Setaria glauca, Chloris virgata, Setaria faberi, Sonchus oleraceus L., Echinochloa oryzoides, Cirsium setosum, Xanthium strumarium were collected in Qiqiha'er of Heilongjiang Province; Sinapis arvensis, Veronica persica^2 were collected in Zhumadian of Henan Province; Ludwigia prostrate, Ammannia arenaria were collected in Zhuji of Zhejiang Province; Amaranthus retrojlexus, Descurainia sophia, Digitaria sanguinalis, Setaria viridis, Conyza Canadensis, Capsella bursa-pastoris, Eleusine indica, Ipomoea purpurea, Abutilon theophrasti, Chenopodium album, Acalypha australis, Solanum nigrum were collected in Qingdao of Shandong Province; Echinochloa caudate were collected in Pingluo of Ningxia Province.
as §1
(§8) The culture was carried out in a controllable sunlight greenhouse at 20 to 30° C., in natural light, and relative humidity of 57% to 72%.
as §2, §3
(§9) Table 1-48, 51-98, 101-148, 151-206: […] per treatment, that is, a total of 60 weeds were treated in one treatment.
(§10) Table 1-48, 51-98, 101-148: The agents were used for only once in the experiment. In the stage of weeds with 3˜4 leaves, the weeds were thinned out to maintain 15 weeds per pot and 45 weeds for each treatment, then continued to be cultured to 5˜6 leaves stage of grassy weeds, 6˜7 leaves stage of broadleaf weeds, and treated.
as §4, §5, §6
(§11) Table 1-48, 51-98, 101-148, 207-216: The investigation was performed after 24 days of the treatment for only once.

Beckmannia syzigachne = assay: as above
From the text: as §7, §1, §8, §2, §3, §9, §10, §4, §5, §6, §11

Acalypha australis = assay: as above
From the text: as §7, §1, §8, §2, §3, §9, §10, §4, §5, §6, §11

Chenopodium album = assay: as above
Summary of the method: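 Pot-grown weeds were thinned to 15 per pot (45 per treatment) and sprayed on foliage at the 5–6-leaf stage for grasses or the 6–7-leaf stage for broadleaves. Agents were dissolved in acetone with 0.1% Tween-80 and applied at 450 kg/ha spray volume and 0.3 MPa. Plants were then kept in a greenhouse. Above-ground fresh weight of survivors, with dead plants counted as zero, gave inhibition versus a solvent/emulsifier blank.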

For Cc1cc(Cl)ccc1OCC(=O)O [MCPA], the “Control effect (%) of B applied alone in corresponding dose” value (shortened to “Control effect (%) of B applied alone”) (Conyza Canadensis; B alone 75 g a.i./ha) was 18.8%.

Nc1cc(Cl)nc(C(=O)O)c1Cl [aminopyralid] was tested, and the “Control effect (%) of B applied alone” value (Conyza Canadensis; B alone 15 g a.i./ha) was 19.0% and the “Control effect (%) of B applied alone” value (Conyza Canadensis; B alone 30 g a.i./ha) was 40.7%.

Cc1ccc(NC(=O)N(C)C)cc1Cl [chlorotoluron] was tested, and the “Control effect (%) of B applied alone” value (Alopecurus japonicus; chlorotoluron 75 g a.i./ha) was 2.9%, the “Control effect (%) of B applied alone” value (Alopecurus japonicus; chlorotoluron 150 g a.i./ha) was 13.1% and the “Control effect (%) of B applied alone” value (Alopecurus japonicus; chlorotoluron 300 g a.i./ha) was 39.8%. The “Control effect (%) of B applied alone” value (Alopecurus japonicus; chlorotoluron 600 g a.i./ha) was 71.9%, the “Control effect (%) of B applied alone” value (Beckmannia syzigachne; B 75 g a.i./ha) was 5.5% and the “Control effect (%) of B applied alone” value (Beckmannia syzigachne; B 150 g a.i./ha) was 16.8%. For the same molecule, the “Control effect (%) of B applied alone” value (Beckmannia syzigachne; B 300 g a.i./ha) was 41.1% and the “Control effect (%) of B applied alone” value (Beckmannia syzigachne; B 600 g a.i./ha) was 72.1%.

In the case of C#CCOC(=O)[C@@H](C)Oc1ccc(Oc2ncc(Cl)cc2F)cc1 [clodinafop-propargyl], the “Control effect (%) of B applied alone” value (Alopecurus japonicus; clodinafop-propargyl 3.75 g a.i./ha) is reported as 3.0%, the “Control effect (%) of B applied alone” value (Alopecurus japonicus; clodinafop-propargyl 7.5 g a.i./ha) is reported as 10.6% and the “Control effect (%) of B applied alone” value (Alopecurus japonicus; clodinafop-propargyl 15 g a.i./ha) is reported as 57.8%. For the same molecule, the “Control effect (%) of B applied alone” value (Alopecurus japonicus; clodinafop-propargyl 30 g a.i./ha) was 79.9%, the “Control effect (%) of B applied alone” value (Beckmannia syzigachne; B 3.75 g a.i./ha) was 10.3% and the “Control effect (%) of B applied alone” value (Beckmannia syzigachne; B 7.5 g a.i./ha) was 20.1%. For the same molecule, the “Control effect (%) of B applied alone” value (Beckmannia syzigachne; B 15 g a.i./ha) was 59.6% and the “Control effect (%) of B applied alone” value (Beckmannia syzigachne; B 30 g a.i./ha) was 81.2%.

In the case of O=C(O)c1nc(Cl)ccc1Cl [clopyralid], the “Control effect (%) of B applied alone” value (Conyza Canadensis; B alone 15 g a.i./ha) is reported as 6.1%, the “Control effect (%) of B applied alone” value (Conyza Canadensis; B alone 30 g a.i./ha) is reported as 29.8% and the “Control effect (%) of B applied alone” value (Conyza Canadensis; B alone 60 g a.i./ha) is reported as 53.5%. The “Control effect (%) of B applied alone” value (Conyza Canadensis; B alone 120 g a.i./ha) was 82.8%.

For Cn1[nH]c(C2CC2)c(C(=O)c2ccc(C(F)(F)F)c(N3CCCCC3=O)c2Cl)c1=O [cypyrafluone], the “Control effect (%) of B applied alone” value (Alopecurus japonicus; cypyrafluone 18.75 g a.i./ha) was 4.0%, the “Control effect (%) of B applied alone” value (Alopecurus japonicus; cypyrafluone 37.5 g a.i./ha) was 24.9% and the “Control effect (%) of B applied alone” value (Alopecurus japonicus; cypyrafluone 75 g a.i./ha) was 54.8%. For the same molecule, the “Control effect (%) of B applied alone” value (Alopecurus japonicus; cypyrafluone 150 g a.i./ha) was 81.3%, the “Control effect (%) of B applied alone” value (Beckmannia syzigachne; B 18.75 g a.i./ha) was 9.0% and the “Control effect (%) of B applied alone” value (Beckmannia syzigachne; B 37.5 g a.i./ha) was 14.2%. The “Control effect (%) of B applied alone” value (Beckmannia syzigachne; B 75 g a.i./ha) was 56.3% and the “Control effect (%) of B applied alone” value (Beckmannia syzigachne; B 150 g a.i./ha) was 81.8%.

In the case of COc1c(Cl)ccc(Cl)c1C(=O)O [dicamba], the “Control effect (%) of B applied alone” value (Conyza Canadensis; B alone 150 g a.i./ha) is reported as 58.7%.

CS(=O)(=O)NC(=O)c1cc(Oc2ccc(C(F)(F)F)cc2Cl)ccc1[N+](=O)[O-] [fomesafen] was tested, and the “Control effect (%) of B applied alone” value (Acalypha australis; B 22.5 g a.i./ha) was 6.4%, the “Control effect (%) of B applied alone” value (Acalypha australis; B 45 g a.i./ha) was 12.6% and the “Control effect (%) of B applied alone” value (Acalypha australis; B 90 g a.i./ha) was 46.9%. The “Control effect (%) of B applied alone” value (Acalypha australis; B 180 g a.i./ha) was 82.4%, the “Control effect (%) of B applied alone” value (Chenopodium album; Table 91, 22.5 g a.i./ha) was 2.7% and the “Control effect (%) of B applied alone” value (Chenopodium album; Table 91, 45 g a.i./ha) was 18.6%. The “Control effect (%) of B applied alone” value (Chenopodium album; Table 91, 90 g a.i./ha) was 45.4% and the “Control effect (%) of B applied alone” value (Chenopodium album; Table 91, 180 g a.i./ha) was 81.9%.

With CC(C)c1ccc(NC(=O)N(C)C)cc1 [isoproturon] the “Control effect (%) of B applied alone” value (Alopecurus japonicus; isoproturon 75 g a.i./ha) was 2.5%, the “Control effect (%) of B applied alone” value (Alopecurus japonicus; isoproturon 150 g a.i./ha) was 11.4% and the “Control effect (%) of B applied alone” value (Alopecurus japonicus; isoproturon 300 g a.i./ha) was 56.5%. For the same molecule, the “Control effect (%) of B applied alone” value (Alopecurus japonicus; isoproturon 600 g a.i./ha) was 75.9%, the “Control effect (%) of B applied alone” value (Beckmannia syzigachne; B 75 g a.i./ha) was 7.0% and the “Control effect (%) of B applied alone” value (Beckmannia syzigachne; B 150 g a.i./ha) was 15.9%. The “Control effect (%) of B applied alone” value (Beckmannia syzigachne; B 300 g a.i./ha) was 57.6% and the “Control effect (%) of B applied alone” value (Beckmannia syzigachne; B 600 g a.i./ha) was 76.6%.

In the case of CCOC(=O)C(C)OC(=O)c1cc(Oc2ccc(C(F)(F)F)cc2Cl)ccc1[N+](=O)[O-] (stereo not drawn) [lactofen], the “Control effect (%) of B applied alone” value (Acalypha australis; B 7.5 g a.i./ha) is reported as 2.7%, the “Control effect (%) of B applied alone” value (Acalypha australis; B 15 g a.i./ha) is reported as 13.5% and the “Control effect (%) of B applied alone” value (Acalypha australis; B 30 g a.i./ha) is reported as 41.4%. For the same molecule, the “Control effect (%) of B applied alone” value (Acalypha australis; B 60 g a.i./ha) was 66.4%, the “Control effect (%) of B applied alone” value (Chenopodium album; Table 94, 7.5 g a.i./ha) was 3.3% and the “Control effect (%) of B applied alone” value (Chenopodium album; Table 94, 15 g a.i./ha) was 10.4%. The “Control effect (%) of B applied alone” value (Chenopodium album; Table 94, 30 g a.i./ha) was 39.7% and the “Control effect (%) of B applied alone” value (Chenopodium album; Table 94, 60 g a.i./ha) was 65.4%.

With CCOc1cc(Oc2ccc(C(F)(F)F)cc2Cl)ccc1[N+](=O)[O-] [oxyfluorfen] the “Control effect (%) of B applied alone” value (Acalypha australis; B 7.5 g a.i./ha) was 4.6%, the “Control effect (%) of B applied alone” value (Acalypha australis; B 15 g a.i./ha) was 12.4% and the “Control effect (%) of B applied alone” value (Acalypha australis; B 30 g a.i./ha) was 32.7%. The “Control effect (%) of B applied alone” value (Acalypha australis; B 60 g a.i./ha) was 68.9%, the “Control effect (%) of B applied alone” value (Chenopodium album; Table 93, 7.5 g a.i./ha) was 3.6% and the “Control effect (%) of B applied alone” value (Chenopodium album; Table 93, 15 g a.i./ha) was 11.9%. The “Control effect (%) of B applied alone” value (Chenopodium album; Table 93, 30 g a.i./ha) was 30.7% and the “Control effect (%) of B applied alone” value (Chenopodium album; Table 93, 60 g a.i./ha) was 68.1%.

CCc1cc(C)cc(CC)c1-c1c(OC(=O)C(C)(C)C)n2n(c1=O)CCOCC2 [pinoxaden] was tested, and the “Control effect (%) of B applied alone” value (Alopecurus japonicus; pinoxaden 3.75 g a.i./ha) was 2.5%, the “Control effect (%) of B applied alone” value (Alopecurus japonicus; pinoxaden 7.5 g a.i./ha) was 12.1% and the “Control effect (%) of B applied alone” value (Alopecurus japonicus; pinoxaden 15 g a.i./ha) was 41.7%. For the same molecule, the “Control effect (%) of B applied alone” value (Alopecurus japonicus; pinoxaden 30 g a.i./ha) was 71.8%, the “Control effect (%) of B applied alone” value (Beckmannia syzigachne; B 3.75 g a.i./ha) was 7.9% and the “Control effect (%) of B applied alone” value (Beckmannia syzigachne; B 7.5 g a.i./ha) was 18.0%. The “Control effect (%) of B applied alone” value (Beckmannia syzigachne; B 15 g a.i./ha) was 43.5% and the “Control effect (%) of B applied alone” value (Beckmannia syzigachne; B 30 g a.i./ha) was 72.6%.
